From ChEMBL document CHEMBL2429775, “The cytotoxicity of 8-O-4' neolignans from the seeds of Crataegus pinnatifida” (Bioorg Med Chem Lett, 2013)

How the values were obtained:
[1] = test system: MCF7; test: Growth inhibition against human MCF7 cells after 48 hrs by MTT assay; assay type: functional, cell-based; details: for IC50: MCF7, 48 h
[2] = test system: HL-60; test: Growth inhibition against human HL60 cells after 48 hrs by MTT assay; assay type: functional, cell-based; details: for IC50: HL-60, 48 h
[3] = test system: K562; test: Growth inhibition against human K562 cells after 48 hrs by MTT assay; assay type: functional, cell-based; details: for IC50: K562, 48 h
[4] = test system: HeLa; test: Growth inhibition against human HeLa cells after 48 hrs by MTT assay; assay type: functional, cell-based
[5] = (§1) Growth inhibition against human A375-S2 cells after 48 hrs by MTT assay; assay type: functional, cell-based; details: A375-S2, 48 h
[6] = test system: A375-S2; test: as §1; assay type: functional, cell-based
[7] = test system: U-937; test: Growth inhibition against human U937 cells after 48 hrs by MTT assay; assay type: functional, cell-based; details: for IC50: U-937, 48 h
[8] = test system: HT-1080; test: Growth inhibition against human HT1080 cells after 48 hrs by MTT assay; assay type: functional, cell-based; details: for IC50: HT-1080, 48 h
[9] = test system: HepG2; test: Growth inhibition against human HepG2 cells after 48 hrs by MTT assay; assay type: functional, cell-based; details: for IC50: HepG2, 48 h
[10] = test system: A549; test: Growth inhibition against human A549 cells after 48 hrs by MTT assay; assay type: functional, cell-based; details: for IC50: A549, 48 h
[11] = test system: HCT-116; test: Growth inhibition against human HCT116 cells after 48 hrs by MTT assay; assay type: functional, cell-based; details: for IC50: HCT-116, 48 h
[12] = test system: MRC5; test: Growth inhibition against human MRC5 cells after 48 hrs by MTT assay; assay type: cell-based; details: for IC50: Homo sapiens, MRC5, 48 h; for growth inhibition (GI): human, mrc5, 48 h

| Structure (SMILES) | growth inhibition (GI) [1] | IC50 [1] [µM] | growth inhibition (GI) [2] | IC50 [2] [µM] | growth inhibition (GI) [3] | IC50 [3] [µM] | IC50 [4] [µM] | growth inhibition (GI) [4] | IC50 [5] [µM] | growth inhibition (GI) [6] | growth inhibition (GI) [7] | IC50 [7] [µM] | growth inhibition (GI) [8] | IC50 [8] [µM] | growth inhibition (GI) [9] | IC50 [9] [µM] | growth inhibition (GI) [10] | IC50 [10] [µM] | growth inhibition (GI) [11] | IC50 [11] [µM] | other results |
| --- | --- | --- | --- | --- | --- | --- | --- | --- | --- | --- | --- | --- | --- | --- | --- | --- | --- | --- | --- | --- | --- |
| COc1cc([C@@H](OC)[C@@H](CO)Oc2ccc(/C=C/C=O)cc2OC)ccc1O | Dose-dependent effect | > 50 | Dose-dependent effect | 25.5 | Dose-dependent effect | > 50 | > 50 | Dose-dependent effect | > 50 | Dose-dependent effect | Dose-dependent effect | 2.71 | Dose-dependent effect | 31.9 | Dose-dependent effect | 40 | Dose-dependent effect | > 50 | Dose-dependent effect | 26.4 | IC50 [12]: > 50 µM; growth inhibition (GI) [12]: Dose-dependent effect |
| COc1cc([C@H](O)[C@@H](CO)Oc2ccc(/C=C/C=O)cc2OC)ccc1O | Dose-dependent effect | > 50 | Dose-dependent effect | 36.6 | Dose-dependent effect | > 50 | > 50 | Dose-dependent effect | 36.4 | Dose-dependent effect | Dose-dependent effect | > 50 | Dose-dependent effect | 35.2 | Dose-dependent effect | 38.5 | Dose-dependent effect | 33.6 | Dose-dependent effect | 32.5 | IC50 [12]: > 50 µM; growth inhibition (GI) [12]: Dose-dependent effect |
| O=c1[nH]cc(F)c(=O)[nH]1 [FLUOROURACIL] | Dose-dependent effect |  | Dose-dependent effect | 10.1 | Dose-dependent effect |  |  | Dose-dependent effect |  | Dose-dependent effect | Dose-dependent effect |  | Dose-dependent effect |  | Dose-dependent effect |  | Dose-dependent effect |  | Dose-dependent effect |  |  |
| COC/C=C/c1ccc(O[C@H](CO)[C@H](OC)c2ccc(O)c(OC)c2)c(OC)c1 | Dose-dependent effect | > 50 | Dose-dependent effect | 27.4 | Dose-dependent effect | > 50 | > 50 | Dose-dependent effect | > 50 | Dose-dependent effect | Dose-dependent effect | > 50 | Dose-dependent effect | 36.4 | Dose-dependent effect | > 50 | Dose-dependent effect | > 50 | Dose-dependent effect | 36 | IC50 [12]: > 50 µM; growth inhibition (GI) [12]: Dose-dependent effect |
| COc1cc([C@@H](O)[C@@H](CO)Oc2ccc(C=O)cc2OC)ccc1O | Dose-dependent effect | > 50 | Dose-dependent effect | > 50 | Dose-dependent effect | > 50 | > 50 | Dose-dependent effect | > 50 | Dose-dependent effect | Dose-dependent effect | 32.2 | Dose-dependent effect | > 50 | Dose-dependent effect | > 50 | Dose-dependent effect | > 50 | Dose-dependent effect | > 50 | IC50 [12]: > 50 µM; growth inhibition (GI) [12]: Dose-dependent effect |
| COc1cc([C@H](O)[C@@H](CO)Oc2ccc(C=O)cc2OC)ccc1O | Dose-dependent effect | > 50 | Dose-dependent effect | > 50 | Dose-dependent effect | > 50 | > 50 | Dose-dependent effect | > 50 | Dose-dependent effect | Dose-dependent effect | 39.1 | Dose-dependent effect | > 50 | Dose-dependent effect | > 50 | Dose-dependent effect | > 50 | Dose-dependent effect | > 50 | IC50 [12]: > 50 µM; growth inhibition (GI) [12]: Dose-dependent effect |
| COc1cc([C@@H](O)[C@@H](CO)Oc2ccc(/C=C/C=O)cc2OC)ccc1O | Dose-dependent effect | > 50 | Dose-dependent effect | 33.5 | Dose-dependent effect | > 50 | > 50 | Dose-dependent effect | 34.2 | Dose-dependent effect | Dose-dependent effect | > 50 | Dose-dependent effect | 33 | Dose-dependent effect | 38.6 | Dose-dependent effect | 25.5 | Dose-dependent effect | 27.3 | IC50 [12]: > 50 µM; growth inhibition (GI) [12]: Dose-dependent effect |
